Where two headings read alike, the source gives them in different places.

In the test the target is T1, integrin α4β7 on α4β7+ memory T helper cells (Homo sapiens, UniProt P13612+P26010).
T1 construct: endogenous in cells
T1 sequence (P13612 34-1032): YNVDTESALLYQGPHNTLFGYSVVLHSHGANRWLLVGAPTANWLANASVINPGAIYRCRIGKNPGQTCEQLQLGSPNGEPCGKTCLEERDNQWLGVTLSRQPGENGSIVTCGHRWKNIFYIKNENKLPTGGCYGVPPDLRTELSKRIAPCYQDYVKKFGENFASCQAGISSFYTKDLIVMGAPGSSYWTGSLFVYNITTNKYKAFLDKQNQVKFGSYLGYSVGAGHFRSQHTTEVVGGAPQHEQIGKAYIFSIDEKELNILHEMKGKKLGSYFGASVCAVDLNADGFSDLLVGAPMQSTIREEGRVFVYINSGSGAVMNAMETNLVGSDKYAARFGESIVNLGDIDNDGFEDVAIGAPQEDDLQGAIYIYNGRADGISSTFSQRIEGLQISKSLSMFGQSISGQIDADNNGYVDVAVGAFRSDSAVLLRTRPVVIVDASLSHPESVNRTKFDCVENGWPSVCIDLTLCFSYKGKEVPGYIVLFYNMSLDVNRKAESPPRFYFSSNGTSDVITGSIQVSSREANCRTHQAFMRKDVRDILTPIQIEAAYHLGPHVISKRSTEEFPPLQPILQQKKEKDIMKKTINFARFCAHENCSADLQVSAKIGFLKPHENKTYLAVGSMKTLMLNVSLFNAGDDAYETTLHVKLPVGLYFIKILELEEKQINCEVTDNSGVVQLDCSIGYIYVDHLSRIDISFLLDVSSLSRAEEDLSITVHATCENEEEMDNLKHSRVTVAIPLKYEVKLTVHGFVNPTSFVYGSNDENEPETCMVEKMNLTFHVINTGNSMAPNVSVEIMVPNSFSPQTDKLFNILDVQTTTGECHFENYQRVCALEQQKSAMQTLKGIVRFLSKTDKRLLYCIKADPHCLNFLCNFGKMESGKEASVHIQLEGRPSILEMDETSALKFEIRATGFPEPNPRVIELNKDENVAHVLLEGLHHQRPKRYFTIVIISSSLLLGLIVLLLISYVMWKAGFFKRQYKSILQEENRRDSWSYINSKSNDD
T1 sequence (P26010 20-798): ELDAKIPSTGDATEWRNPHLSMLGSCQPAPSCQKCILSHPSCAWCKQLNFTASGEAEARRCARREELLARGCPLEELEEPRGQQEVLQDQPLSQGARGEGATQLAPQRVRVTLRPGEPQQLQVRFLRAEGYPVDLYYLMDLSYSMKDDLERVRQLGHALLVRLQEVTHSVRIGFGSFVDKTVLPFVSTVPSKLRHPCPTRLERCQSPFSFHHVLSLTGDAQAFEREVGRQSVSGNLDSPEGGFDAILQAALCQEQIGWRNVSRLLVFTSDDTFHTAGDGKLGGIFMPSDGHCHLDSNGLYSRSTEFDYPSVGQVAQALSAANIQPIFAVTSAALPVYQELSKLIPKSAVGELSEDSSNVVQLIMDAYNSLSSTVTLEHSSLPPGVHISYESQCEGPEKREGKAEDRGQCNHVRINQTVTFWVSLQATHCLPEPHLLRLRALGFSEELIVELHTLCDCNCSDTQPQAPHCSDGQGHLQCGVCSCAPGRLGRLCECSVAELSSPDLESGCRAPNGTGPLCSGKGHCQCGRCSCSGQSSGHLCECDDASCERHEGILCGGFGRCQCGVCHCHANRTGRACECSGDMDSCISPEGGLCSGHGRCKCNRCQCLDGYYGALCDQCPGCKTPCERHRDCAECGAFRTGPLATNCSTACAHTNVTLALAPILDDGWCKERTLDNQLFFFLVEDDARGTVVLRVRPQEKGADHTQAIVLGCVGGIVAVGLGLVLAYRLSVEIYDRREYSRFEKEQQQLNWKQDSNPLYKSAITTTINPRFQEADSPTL
As to the kind of experiment: MAdCAM-1 competition / receptor occupancy assay in human whole blood, α4β7-positive Th memory cells. Type of test: cell-based. A digest of the protocol:
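Human heparinised whole blood; saturating biotinylated rhMAdCAM-1-Fc or rhVCAM-1-Fc bound 1 h at RT, stained in buffer with 4 mM MnCl2, detected by streptavidin-APC flow cytometry on gated CD45+CD3+CD4+CD45RO+CD49d+ β7+ or β7-lo cells. Occupancy = 100−((% ligand-positive cells with compound/% ligand-positive cells DMSO)*100).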

Where [1] appears, read: human whole blood, inhibition of MAdCAM-1 binding to α4β7-positive Th memory cells, FACS, read-out: MADCAM FACS α4β7 Th mem.

`CC(C)C[C@@H]1NC(=O)c2ccc(-c3ccc(N4CCN(C(=O)c5cc(C(=O)N6CCN(c7ccc(-c8ccc9cc8CNC(=O)[C@@H]8CCCN8[C@H](C(=O)NC(C)(C)C)[C@H](C)NC(=O)[C@H]([C@@H](C)O)NC(=O)[C@H](CC(=O)O)NC(=O)[C@H](CC(C)C)NC9=O)cc7)CC6)cc(C(=O)N6CCN(c7ccc(-c8ccc9cc8CNC(=O)[C@@H]8CCCN8[C@H](C(=O)NC(C)(C)C)[C@H](C)NC(=O)[C@H]([C@@H](C)O)NC(=O)[C@H](CC(=O)O)NC(=O)[C@H](CC(C)C)NC9=O)cc7)CC6)c5)CC4)cc3)c(c2)CNC(=O)[C@@H]2CCCN2[C@H](C(=O)NC(C)(C)C)[C@H](C)NC(=O)[C@H]([C@@H](C)O)NC(=O)[C@H](CC(=O)O)NC1=O` [Compound 520]: the IC50 under setting [1] is 1.2 nM. In the case of `CC(C)C[C@@H]1NC(=O)C[C@H](CCCCN)N(C)C(=O)[C@H](CCCCNC(=O)CCCCCCCCC(=O)NCCCC[C@@H]2NC(=O)[C@@H]3CCCN3[C@H](C(=O)NC(C)(C)C)[C@H](C)NC(=O)[C@H]([C@@H](C)O)NC(=O)[C@H](CC(=O)O)NC(=O)[C@H](CC(C)C)NC(=O)C[C@H](CCCCN)N(C)C2=O)NC(=O)[C@@H]2CCCN2[C@H](C(=O)NC(C)(C)C)[C@H](C)NC(=O)[C@H]([C@@H](C)O)NC(=O)[C@H](CC(=O)O)NC1=O` [Compound 530], the IC50 under setting [1] came out at 33 nM and the IC50 (whole blood from a single donor, FIG. 10, read-out: IC50, inhibition of MAdCAM-1 binding to primary cells) lay within 87 to 141 nM. Regarding `CC(C)C[C@@H]1NC(=O)C[C@H](CCCCN)N(C)C(=O)[C@H](CCCCNC(=O)CCCCCC(=O)NCCCC[C@@H]2NC(=O)[C@@H]3CCCN3[C@H](C(=O)NC(C)(C)C)[C@H](C)NC(=O)[C@H]([C@@H](C)O)NC(=O)[C@H](CC(=O)O)NC(=O)[C@H](CC(C)C)NC(=O)C[C@H](CCCCN)N(C)C2=O)NC(=O)[C@@H]2CCCN2[C@H](C(=O)NC(C)(C)C)[C@H](C)NC(=O)[C@H]([C@@H](C)O)NC(=O)[C@H](CC(=O)O)NC1=O` [Compound 532], the IC50 under setting [1] is 57 nM. The same measure, in the same setting: with `CC(C)C[C@@H]1NC(=O)C[C@H](CCCCN)N(C)C(=O)[C@H](CCCCNC(=O)CCCCCCCC(=O)NCCCC[C@@H]2NC(=O)[C@@H]3CCCN3[C@H](C(=O)NC(C)(C)C)[C@H](C)NC(=O)[C@H]([C@@H](C)O)NC(=O)[C@H](CC(=O)O)NC(=O)[C@H](CC(C)C)NC(=O)C[C@H](CCCCN)N(C)C2=O)NC(=O)[C@@H]2CCCN2[C@H](C(=O)NC(C)(C)C)[C@H](C)NC(=O)[C@H]([C@@H](C)O)NC(=O)[C@H](CC(=O)O)NC1=O` [Compound 533] the figure was 46 nM. For `CC(C)C[C@@H]1NC(=O)C[C@H](CCCCN)N(C)C(=O)[C@H](CCCCNC(=O)c2ccccc2-c2ccccc2C(=O)NCCCC[C@@H]2NC(=O)[C@@H]3CCCN3[C@H](C(=O)NC(C)(C)C)[C@H](C)NC(=O)[C@H]([C@@H](C)O)NC(=O)[C@H](CC(=O)O)NC(=O)[C@H](CC(C)C)NC(=O)C[C@H](CCCCN)N(C)C2=O)NC(=O)[C@@H]2CCCN2[C@H](C(=O)NC(C)(C)C)[C@H](C)NC(=O)[C@H]([C@@H](C)O)NC(=O)[C@H](CC(=O)O)NC1=O` [Compound 535], the IC50 worked out at 76 nM (human whole blood, FIG. 7, read-out: IC50, MAdCAM-1 competition on α4β7-positive primary cells) and 77 nM under setting [1].

For `CC(C)C[C@@H]1NC(=O)C[C@H](CCCCN)N(C)C(=O)[C@H](CCCCNC(=O)CCOCCOCCOCCOCCOCCOCCOCCC(=O)NCCCC[C@@H]2NC(=O)[C@@H]3CCCN3[C@H](C(=O)NC(C)(C)C)[C@H](C)NC(=O)[C@H]([C@@H](C)O)NC(=O)[C@H](CC(=O)O)NC(=O)[C@H](CC(C)C)NC(=O)C[C@H](CCCCN)N(C)C2=O)NC(=O)[C@@H]2CCCN2[C@H](C(=O)NC(C)(C)C)[C@H](C)NC(=O)[C@H]([C@@H](C)O)NC(=O)[C@H](CC(=O)O)NC1=O` [Compound 536], under setting [1], the IC50 came to 75 nM.

These data come from patent publication US11713338B2, “Cyclic peptides multimers targeting α-4-β-7 integrin” (priority 2016, dated 2023).
